Columns and labels:
[1] = tested on: adult humans; conditions: dosages above 50-100 mg; cited from earlier work
[2] = tested on: brain NAD levels; assay: NAD-brain pharmacokinetic study: brain NAD by 31P-MRS; format: in vivo, human; conditions: 11 days after last dose, 1200 mg daily for 8 days
Experimental: • At screening, participants are assessed for eligibility, inclusion/exclusion criteria, medical history and concomitant medication is recorded, and informed consent signed. • The NAD-brain study performs a parallel assessment of NAD replenishment therapy pharmacokinetics in the blood and brain of healthy human subjects and subjects with Parkinson's disease (PD). Healthy individuals and individuals with PD undergo repeated blood sampling and 31P-MRS brain scans during two 20-day periods, each of which starts with 8 days of daily intake of NR 600 mg×2, or NMN 600 mg×2 (Table 10). • For each 20-day period the testing (i.e., scanning and blood draw) frequency is shown in Table 10, below. The two 20-day periods are 14 days apart to allow for washout of the previous compound. This is a pharmacokinetic (PK) study where 6 healthy individuals (3 male and 3 female): • 1) Received NR 1200 mg daily (600 mg×2) for 8 days, followed by an additional 11 days follow up, while undergoing serial blood and brain NAD-measurement. • 2) Received NMN 1200 mg daily (600 mg×2) for 8 days, followed by an additional 11 days follow up, while undergoing serial blood and brain NAD-measurement. The individuals were mixed, so that in stage-1 three individuals received NR and three individuals received NMN, then in stage-2 they switched (Cross-over design). There were almost three weeks (20 days) of washout between the last dose of the first compound, and before the first dose of the second compounds. In the brain, total NAD (NAD^++NADH) levels were measured by 31P-MRS as previously described^19. […] 19 Brakedal, B. et al. The […] study: A randomized phase I trial of nicotinamide riboside supplementation in Parkinson's disease. Cell Metab 34, 396-407.e6 (2022).

[3] = tested on: blood NAD^+ levels; assay: NAD-brain pharmacokinetic study: whole blood NAD+ response; format: in vivo, human
Experimental: The NAD-brain study performs a parallel assessment of NAD replenishment therapy pharmacokinetics in the blood and brain of healthy human subjects and subjects with Parkinson's disease (PD). A total of 10 healthy individuals (5 men and 5 women) and 10 individuals with PD (5 men and 5 women) undergo repeated blood sampling and 31P-MRS brain scans during two 20-day periods, each of which starts with 8 days of daily intake of NR 600 mg×2, or NMN 600 mg×2. The two 20-day period is 14 days apart to allow for washout of the previous compound. Blood is analyzed for NR and NAD-metabolites using HPLC-MS. By this approach, we measured the simultaneous change in NAD-metabolism overtime in blood and brain and establish blood and brain pharmacokinetics for NAD replenishment therapy in humans.
NR (Niagen®, Chromadex) at a dose of 600 mg×2 daily). NMN (Restorin®, from Seragon Pharmaceutics, or MIB-626 from Metro International Biotech) at a dose of 600 mg×2 daily.
• At screening, participants are assessed for eligibility, inclusion/exclusion criteria, medical history and concomitant medication is recorded, and informed consent signed. • The NAD-brain study performs a parallel assessment of NAD replenishment therapy pharmacokinetics in the blood and brain of healthy human subjects and subjects with Parkinson's disease (PD). Healthy individuals and individuals with PD undergo repeated blood sampling and 31P-MRS brain scans during two 20-day periods, each of which starts with 8 days of daily intake of NR 600 mg×2, or NMN 600 mg×2 (Table 10). • For each 20-day period the testing (i.e., scanning and blood draw) frequency is shown in Table 10, below. The two 20-day periods are 14 days apart to allow for washout of the previous compound.
Blood is analyzed for NR and NAD-metabolites using HPLC-MS metabolomics. Snap-frozen whole blood is used for the analysis of NAD^+. Blood is drawn from the participant in EDTA tube (VACUETTE® TUBE 2 ml K2E K2EDTA). The EDTA tube is gently inverted at least 10 times without shaking; 8×200 μl of blood from the EDTA tube is aliquoted into 8×0.5 ml micro tubes; these are closed, and all the micro tubes are immerse simultaneously in liquid nitrogen within 2 min from when blood has started flowing into the EDTA tube; then transferred frozen to −80° C. freezer for storage; stored at −80C in freezer-compatible cardboard or plastic storage boxes; and shipped on dry ice.
This is a pharmacokinetic (PK) study where 6 healthy individuals (3 male and 3 female): • 1) Received NR 1200 mg daily (600 mg×2) for 8 days, followed by an additional 11 days follow up, while undergoing serial blood and brain NAD-measurement. • 2) Received NMN 1200 mg daily (600 mg×2) for 8 days, followed by an additional 11 days follow up, while undergoing serial blood and brain NAD-measurement.
The individuals were mixed, so that in stage-1 three individuals received NR and three individuals received NMN, then in stage-2 they switched (Cross-over design). There were almost three weeks (20 days) of washout between the last dose of the first compound, and before the first dose of the second compounds.

SMILES | flushing with NAD precursor supplementation [1] | NAD levels at day 19 [2] | blood NAD^+ levels ([3]; 1200 mg daily (600 mg×2) for 8 days, 6 healthy individuals) | day of maximal NAD levels in the blood ([3]; 1200 mg daily for 8 days, last dose morning of day 8) [days] | plateau of blood NAD^+ levels ([3]; after 8 days of precursor intake, 1200 mg daily)
O=C(O)c1cccnc1 [nicotinic acid] | painful flushing | – | – | – | –
NC(=O)c1ccc[n+]([C@@H]2O[C@H](COP(=O)([O-])O)[C@@H](O)[C@H]2O)c1 [NMN, Nicotinamide Mononucleotide] | – | returned to baseline by day 19 | increased in all individuals | 8 | did not plateau after 8 days
